What was measured:
[1] = tested on: mouse spleen cells; test: IgG production upon ConA stimulation of mouse spleen cells (ELISA of culture supernatant); assay type: cell-based; settings: for IgG concentration (amount of IgG production), mean: BALB/c mouse spleen cells, 5 days culture, supernatant; for Ability to promote IgG production upon ConA stimulation: mouse spleen cells, Student's t test, significance level 5%
Text: (§1) BALB mice (female) of 6 to 8 weeks old were purchased and fed for 1 week for habituation. A commercially available solid feed was used as a feed and tap water was used as water. In order to evaluate influences of cinacalcet and γ-glutamylvaline on antibody producing activity, a culture system using mouse spleen cells was employed. The spleen was collected from BALB-c mice (n=3). The collected spleen cells were washed and thereafter suspended in an RPMI1640 medium (10% FCS, 50 U/ml penicillin, and 50 μg/ml streptomycin). To cells adjusted to 1×10^6 per a 48 well culture plate, cinacalcet or γ-glutamylvaline (dissolved in a sterilized phosphate buffer), or a phosphate buffer as a control was added. And the cells were then stimulated with 5 μg of LPS (lipopolysaccharide, obtained from Sigma). Thereafter, the cells were cultured in a CO2 incubator at 37° C. for 5 days and the amount of IgA antibody in the supernatant was analyzed.
In the same manner, the cells adjusted to 1×10^6 per a 48 well culture plate were, in the presence or absence of cinacalcet or γ-glutamylvaline, stimulated with 0.5 μg of ConA (concanavalin A). Thereafter, the cells were cultured in a CO2 incubator at 37° C. for 5 days and the amount of IgG antibody in the supernatant was analyzed.
(§2) The amounts of IgA and IgG were measured by the ELISA method. The method for measuring IgG is shown below. 100 μl of rat anti-mouse IgG antibody (Calbiochem, 1 μg/ml in 50 mM sodium carbonate buffer, pH 8.5) solution was added to a 96 well ELISA plate and the plate was incubated at 4° C. overnight to coat each well with the anti-mouse IgG antibody. The plate was washed three times with PBST (phosphate buffered saline, 0.05% Tween 20) and subjected to a blocking treatment with 200 μl of PBS solution containing 2% BSA at 37° C. for 1 hr.
(§3) The plate was washed three times with PBST. Thereafter, 100 μl of the culture supernatant (9 fold diluted with PBST containing 1% BSA) was added and allowed to react at 37° C. for 2 hr. The plate was again washed four times with PBST. 100 μl of an alkaline phosphatase-conjugated anti-mouse IgG (rabbit) (BD Biosciences) solution diluted 2000 fold with PBST containing 1% BSA was added and allowed to react at 37° C. for 1 hour. The plate was washed six times and then colored with p-nitrophenyl phosphate. The reaction was terminated with 100 μl/well of 3 M NaOH and the absorbance at 405 nm was measured.
(§4) A statistical analysis was carried out by Student's t test and a significance level of 5% or less was considered as significant difference.

[2] = tested on: mouse spleen cells; test: IgA production upon LPS stimulation of mouse spleen cells (ELISA of culture supernatant); assay type: cell-based; settings: for IgA concentration (amount of IgA production), mean: BALB/c mouse spleen cells, 5 days culture, supernatant; for Ability to promote IgA production upon LPS stimulation: mouse spleen cells, Student's t test, significance level 5%
Text: as §1, §2, §3
The measurement of IgA was carried out in accordance with the method for IgG except that a rat anti-mouse IgA antibody (BD Biosciences) was used as the immobilized antibody, a biotinylated anti-mouse IgA antibody (rat) (BD Biosciences) was used as the labeled antibody, 3,3′,5,5′-tetramethylbenzidine solution (TMB substrate-developing solution, Sigma) was used as the chromogenic substrate, termination of the coloring was carried out using 1 M sulfuric acid, and the absorbance at 450 nm was measured.
as §4

| SMILES | IgG concentration (amount of IgG production), mean ([1]; ConA stimulation + test substance 0.1 mM) [ng/mL] | Ability to promote IgG production upon ConA stimulation [1] | IgA concentration (amount of IgA production), mean ([2]; LPS stimulation + test substance 0.1 mM) [ng/mL] | Ability to promote IgA production upon LPS stimulation [2] | IgG concentration (amount of IgG production), mean ([1]; ConA stimulation + test substance 0.1 μM) [ng/mL] | IgA concentration (amount of IgA production), mean ([2]; LPS stimulation + test substance 0.1 μM) [ng/mL] |
| --- | --- | --- | --- | --- | --- | --- |
| CC(C)[C@H](NC(=O)CC[C@H](N)C(=O)O)C(=O)O [γ-GluVal, γ-glutamylvaline] | 62.78 | significantly confirmed | 25.28 | significantly confirmed | – | – |
| C[C@@H](NCCCc1cccc(C(F)(F)F)c1)c1cccc2ccccc12 [Cinacalcet, (R)—N-(3-(3-(trifluoromethyl)phenyl)propyl)-1-(1-naphthyl)ethylamine] | – | significantly confirmed | – | significantly confirmed | 55.24 | 26.09 |

Reference: patent US20110070270A1, “IMMUNOSTIMULATING AGENT” (priority 2008, published 2011)
